Measured values as given in ChEMBL document CHEMBL1121922, “Synthesis and pharmacological evaluation of a series of analogues of 1-methylisoguanosine” (1981).
The source made the active and inactive calls. No cut-off for these calls is given here.

Key:
Rattus norvegicus [1] = assay: Antiinflammatory activity of compound (100 mg/kg) was assessed by inhibition of carrageenan-induced edema in rats; NA= No activity; format: functional, organism-based
Rattus norvegicus [2] = assay: Antiallergic activity of compound (10 mg/kg, iv) was assessed by the inhibition of passive paw anaphylaxis in rats; format: functional
Mus musculus [3] = organism: Mus musculus; assay: Effective peroral dose for muscle relaxation in mice; format: functional; settings: po
Rattus norvegicus [4] = assay: Cardiovascular response in conscious hypertensive rats after administration of compound expressed as percent reduction in heart rate; NA= No activity; format: functional, organism-based
Mus musculus [5] = organism: Mus musculus; assay: Effective peroral dose hypothermic activity in mice; format: functional; settings: po
Rattus norvegicus [6] = assay: Cardiovascular response in conscious hypertensive rats after administration of compound expressed as percent reduction in blood pressure; NA= No activity; format: functional, organism-based
Rattus norvegicus [7] = assay: Antiallergic activity of 10 mg/kg intravenous dose of compound was assessed by the inhibition of passive paw anaphylaxis in rats; format: functional
Rattus norvegicus [8] = assay: Antiinflammatory activity of 50mg/Kg, po compound was assessed by inhibition of carrageenan-induced edema in rats; no activity; format: functional
Rattus norvegicus [9] = assay: Antiinflammatory activity of 100mg/Kg, po compound was assessed by inhibition of carrageenan-induced edema in rats; NA= No activity; format: functional, organism-based
Rattus norvegicus [10] = assay: Antiallergic activity of 10 mg/kg intravenous dose of compound was assessed by the inhibition of passive paw anaphylaxis in rats; NA= No activity; format: functional, organism-based; parameters: dose 10 mg/kg; settings: at 10 mg/kg
Mus musculus [11] = organism: Mus musculus; assay: Effective peroral dose for muscle relaxation in mice; 8.6-27.1; format: functional; settings: po
Mus musculus [12] = organism: Mus musculus; assay: Effective peroral dose hypothermic activity in mice; 7.5-20.7; format: functional; settings: po
Rattus norvegicus [13] = assay: Cardiovascular response in conscious hypertensive rats after administration of compound expressed as percent reduction in blood pressure; format: functional
Rattus norvegicus [14] = assay: Antiinflammatory activity of compound (50 mg/kg) was assessed by inhibition of carrageenan-induced edema in rats; format: functional
Rattus norvegicus [15] = assay: Antiinflammatory activity of compound (20 mg/kg) was assessed by inhibition of carrageenan-induced edema in rats; format: functional
Rattus norvegicus [16] = assay: Cardiovascular response in conscious hypertensive rats after administration of compound expressed as percent reduction in heart rate; format: functional
Mus musculus [17] = organism: Mus musculus; assay: Effective peroral dose hypothermic activity in mice; 16.6-26.9; format: functional; settings: po
Rattus norvegicus [18] = assay: Antiinflammatory activity of 25mg/Kg, po compound was assessed by inhibition of carrageenan-induced edema in rats; NA= No activity; format: functional, organism-based
Mus musculus [19] = organism: Mus musculus; assay: Effective peroral dose for muscle relaxation in mice; 24.7-35.2; format: functional; settings: po
Rattus norvegicus [20] = assay: Antiallergic activity of compound (10mg/Kg, iv) was assessed by the inhibition of passive paw anaphylaxis in rats; NA= No activity; format: functional, organism-based
Rattus norvegicus [21] = assay: Antiallergic activity of compound (10 mg/kg, iv) was assessed by the inhibition of passive paw anaphylaxis in rats; NA= No activity; format: functional, organism-based
Rattus norvegicus [22] = assay: Antiinflammatory activity of compound (25 mg/kg) was assessed by inhibition of carrageenan-induced edema in rats
Mus musculus [23] = organism: Mus musculus; assay: Effective peroral dose hypothermic activity in mice; 6.3-18.7; format: functional; settings: po
Mus musculus [24] = organism: Mus musculus; assay: Effective peroral dose for muscle relaxation in mice; 7.7-16.3; format: functional; settings: po
Mus musculus [25] = organism: Mus musculus; assay: Effective peroral dose hypothermic activity in mice; 2.2-71.9; format: functional; settings: po
Rattus norvegicus [26] = assay: Antiinflammatory activity of compound (25 mg/kg) was assessed by inhibition of carrageenan-induced edema in rats; format: functional
Mus musculus [27] = organism: Mus musculus; assay: Effective peroral dose for muscle relaxation in mice; 9.9-39.2; format: functional; settings: po

## CCCCCCCCn1c(=O)[nH]c2c(ncn2C2O[C@H](CO)[C@@H](O)[C@H]2O)c1=N (some centres not stated)
Rattus norvegicus [1]
  inhibition: inactive
Rattus norvegicus [2]
  Inhibition: 14%
Mus musculus [3]
  ED50: > 100 mg/kg
Rattus norvegicus [4]
  HR: inactive
Mus musculus [5]
  ED50: > 100 mg/kg
Rattus norvegicus [6]
  BP: Not significant

## Cn1c(=N)c2ncn3c2n(c1=O)C[C@H]1OC3[C@H](O)[C@@H]1O.I
Mus musculus [3]
  ED50: > 100 mg/kg
Rattus norvegicus [4]
  HR: inactive
Mus musculus [5]
  ED50: > 100 mg/kg
Rattus norvegicus [7]
  inhibition in vivo at 10 mg/kg: 45%
Rattus norvegicus [8]
  inhibition in vivo at 50 mg/kg: 21%
Rattus norvegicus [6]
  BP: Not significant

## Cn1c(=O)[nH]c2c(ncn2C2O[C@H](CO)[C@@H](O)[C@H]2O)c1=O (some centres not stated)
Mus musculus [3]
  ED50: > 100 mg/kg
Rattus norvegicus [4]
  HR: inactive
Mus musculus [5]
  ED50: > 100 mg/kg
Rattus norvegicus [9]
  inhibition: inactive
Rattus norvegicus [6]
  BP: Not significant
Rattus norvegicus [10]
  inhibition: inactive

## C[C@H]1OC(n2cnc3c(=N)n(C)c(=O)[nH]c32)[C@H](O)[C@@H]1O (some centres not stated)
Mus musculus [3]
  ED50: > 100 mg/kg
Rattus norvegicus [4]
  HR: inactive
Mus musculus [5]
  ED50: > 100 mg/kg
Rattus norvegicus [9]
  inhibition: inactive
Rattus norvegicus [6]
  BP: Not significant
Rattus norvegicus [10]
  inhibition: inactive

## COc1nc(N)c2ncn([C@@H]3O[C@H](CO)[C@@H](O)[C@H]3O)c2n1 [BVT.115959]
Mus musculus [11]
  ED50: 15.3 mg/kg
Rattus norvegicus [2]
  Inhibition: 56%
Mus musculus [12]
  ED50: 12.5 mg/kg
Rattus norvegicus [13]
  BP: -41%
Rattus norvegicus [14]
  Inhibition: 57%
Rattus norvegicus [15]
  Inhibition: 25%
Rattus norvegicus [16]
  HR: -25%

## Cn1c(=O)[nH]c2c(nc(NN)n2C2O[C@H](CO)[C@@H](O)[C@H]2O)c1=N (some centres not stated)
Mus musculus [3]
  ED50: > 100 mg/kg
Rattus norvegicus [13]
  BP: -13%
Mus musculus [5]
  ED50: > 100 mg/kg
Rattus norvegicus [9]
  inhibition: inactive
Rattus norvegicus [10]
  inhibition: inactive
Rattus norvegicus [16]
  HR: -21%

## Cn1c(=O)[nH]c2c(ncn2C2O[C@@H]3COP(=O)(O)O[C@@H]3[C@@H]2O)c1=N (some centres not stated)
Mus musculus [17]
  ED50: 21.2 mg/kg
Rattus norvegicus [18]
  inhibition: inactive
Mus musculus [19]
  ED50: 29.5 mg/kg
Rattus norvegicus [13]
  BP: -17%
Rattus norvegicus [7]
  inhibition in vivo at 10 mg/kg: 14%
Rattus norvegicus [16]
  HR: -37%

## Nc1nc(=O)[nH]c2c1ncn2[C@@H]1O[C@H](CO)[C@@H](O)[C@H]1O [ISOGUANOSINE]
Mus musculus [3]
  ED50: > 100 mg/kg
Mus musculus [5]
  ED50: > 100 mg/kg
Rattus norvegicus [9]
  inhibition: inactive

## Cn1c(=O)[nH]c2c(nc(N)n2C2O[C@H](CO)[C@@H](O)[C@H]2O)c1=N (some centres not stated)
Mus musculus [3]
  ED50: > 100 mg/kg
Rattus norvegicus [13]
  BP: -10%
Mus musculus [5]
  ED50: > 100 mg/kg
Rattus norvegicus [9]
  inhibition: inactive
Rattus norvegicus [10]
  inhibition: inactive
Rattus norvegicus [16]
  HR: -20%

## Cn1c(=O)[nH]c2c(ncn2C2O[C@H](CI)[C@@H](O)[C@H]2O)c1=N (some centres not stated)
Rattus norvegicus [1]
  inhibition: inactive
Rattus norvegicus [2]
  Inhibition: 14%
Mus musculus [3]
  ED50: > 100 mg/kg
Rattus norvegicus [4]
  HR: inactive
Mus musculus [5]
  ED50: > 100 mg/kg
Rattus norvegicus [6]
  BP: Not significant

## Cn1c(=O)[nH]c2c(ncn2C2O[C@H](CO)[C@@H](O)[C@@H]2O)c1=N (some centres not stated)
Rattus norvegicus [1]
  inhibition: inactive
Rattus norvegicus [20]
  inhibition: inactive
Mus musculus [3]
  ED50: > 100 mg/kg
Rattus norvegicus [4]
  HR: inactive
Mus musculus [5]
  ED50: > 100 mg/kg
Rattus norvegicus [6]
  BP: Not significant

## Cn1c(N)c2nc([C@@H]3O[C@H](CO)[C@@H](O)[C@H]3O)nc-2[nH]c1=O
Mus musculus [3]
  ED50: > 100 mg/kg
Rattus norvegicus [13]
  BP: -9%
Rattus norvegicus [4]
  HR: inactive
Mus musculus [5]
  ED50: > 100 mg/kg
Rattus norvegicus [9]
  inhibition: inactive
Rattus norvegicus [10]
  inhibition: inactive

## Cn1c(=O)[nH]c2c(nc(Br)n2C2O[C@H](CO)[C@@H](O)[C@H]2O)c1=N (some centres not stated)
Rattus norvegicus [1]
  inhibition: inactive
Mus musculus [3]
  ED50: > 100 mg/kg
Rattus norvegicus [4]
  HR: inactive
Rattus norvegicus [21]
  inhibition: inactive
Mus musculus [5]
  ED50: > 100 mg/kg
Rattus norvegicus [6]
  BP: Not significant

## Cn1c(=O)[nH]c2c(ncn2COCCO)c1=N
Rattus norvegicus [1]
  inhibition: inactive
Rattus norvegicus [20]
  inhibition: inactive
Mus musculus [3]
  ED50: > 100 mg/kg
Rattus norvegicus [4]
  HR: inactive
Mus musculus [5]
  ED50: > 100 mg/kg
Rattus norvegicus [6]
  BP: Not significant

## N=c1c2ncn(C3O[C@H](CO)[C@@H](O)[C@H]3O)c2[nH]c(=O)n1-c1ccccc1 (some centres not stated)
Mus musculus [3]
  ED50: > 100 mg/kg
Rattus norvegicus [4]
  HR: inactive
Mus musculus [5]
  ED50: > 100 mg/kg
Rattus norvegicus [7]
  inhibition in vivo at 10 mg/kg: 30%
Rattus norvegicus [9]
  inhibition: inactive
Rattus norvegicus [6]
  BP: Not significant

## Cn1c(=O)[nH]c2c(ncn2C2O[C@H](CO)[C@@H](O)[C@H]2O)c1=N (some centres not stated)
Rattus norvegicus [22]
  Inhibition: 62%
Rattus norvegicus [2]
  Inhibition: 55%
Mus musculus [23]
  ED50: 10.9 mg/kg
Rattus norvegicus [13]
  BP: -32%
Mus musculus [24]
  ED50: 11.2 mg/kg
Rattus norvegicus [16]
  HR: -36%

## Cn1c(=O)[nH]c2c(ncn2C2O[C@H](COP(=O)(O)O)[C@@H](O)[C@H]2O)c1=N (some centres not stated)
Rattus norvegicus [2]
  Inhibition: 57%
Mus musculus [25]
  ED50: 12.6 mg/kg
Rattus norvegicus [13]
  BP: -44%
Rattus norvegicus [26]
  Inhibition: 46%
Mus musculus [27]
  ED50: 19.7 mg/kg
Rattus norvegicus [16]
  HR: -48%

## CCn1c(=O)[nH]c2c(ncn2C2O[C@H](CO)[C@@H](O)[C@H]2O)c1=N (some centres not stated)
Rattus norvegicus [2]
  Inhibition: 40%
Mus musculus [3]
  ED50: > 100 mg/kg
Rattus norvegicus [13]
  BP: -18%
Mus musculus [5]
  ED50: > 100 mg/kg
Rattus norvegicus [14]
  Inhibition: 17%
Rattus norvegicus [16]
  HR: -27%

## CCCCn1c(=O)[nH]c2c(ncn2C2O[C@H](CO)[C@@H](O)[C@H]2O)c1=N (some centres not stated)
Mus musculus [3]
  ED50: > 100 mg/kg
Rattus norvegicus [13]
  BP: -7%
Mus musculus [5]
  ED50: > 100 mg/kg
Rattus norvegicus [7]
  inhibition in vivo at 10 mg/kg: 35%
Rattus norvegicus [9]
  inhibition: inactive
Rattus norvegicus [16]
  HR: -16%
